From US20250353898A1, “SERPIN PEPTIDE DERIVATIVES AND METHODS OF USING THE SAME” (priority 2022, published 2025)
Positions of bridges follow the written chain, without caps; N, C: chain ends. Non-standard residues stand in square brackets, D forms with d. Residues, ends and D or L forms follow the SMILES beside them. Nle = CCCC[C@H](N)C(=O)O

Tests used:
TMPRSS2 = target: T1, TMPRSS2 (Homo sapiens, UniProt O15393); assay: cell-based; conditions: overexpressing cell system; read-out: IC50 against TMPRSS2 (converted)
T1 construct: expressed in transfected cells
T1 sequence (O15393 whole entry): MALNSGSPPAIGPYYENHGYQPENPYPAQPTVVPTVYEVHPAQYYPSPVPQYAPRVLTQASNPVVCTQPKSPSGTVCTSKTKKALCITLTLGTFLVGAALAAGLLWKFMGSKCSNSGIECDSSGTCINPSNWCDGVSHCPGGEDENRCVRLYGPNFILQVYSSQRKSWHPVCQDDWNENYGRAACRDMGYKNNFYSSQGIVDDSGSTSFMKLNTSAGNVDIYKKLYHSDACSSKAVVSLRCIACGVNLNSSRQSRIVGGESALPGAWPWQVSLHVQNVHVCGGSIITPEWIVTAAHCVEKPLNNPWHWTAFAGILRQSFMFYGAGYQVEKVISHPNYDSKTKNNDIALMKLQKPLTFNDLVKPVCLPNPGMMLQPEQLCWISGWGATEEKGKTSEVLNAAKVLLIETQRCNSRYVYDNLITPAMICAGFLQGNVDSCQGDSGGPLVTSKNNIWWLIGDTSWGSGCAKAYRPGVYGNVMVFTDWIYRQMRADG

NFκB = NFκB reporter assay (SEAP) in THP1-XBlue-MD2-CD14 cells after LPS; format: cell-based
Description: The NFκB inducible Secreted Embryonic Alkaline Phosphatase (SEAP) was measured in the supernatant and read for absorbance.
(§1) Various SERPIN peptide derivatives were screened in vitro for their ability to reduce TNFα and NFκB secretion via LRP-1 activation. The NFκB reporter cells (THP1-XBlue-MD2-CD14 cells) were treated with each peptide derivative at various concentrations, up to 100 μg/ml before being insulted with LPS (5 ng/ml) and incubated overnight. The NFκB inducible Secreted Embryonic Alkaline Phosphatase (SEAP) was measured in the supernatant and read for absorbance. IMG Microglial cells were treated with each peptide derivative at various concentrations, up to 100 μg/ml before LPS (100 ng/ml) stimulation for 24 hours. An ELISA was used to measure TNFα in the supernatant ([…]).

IL-6 = IL-6 secretion in IMG microglial cells after LPS (ELISA); format: cell-based; conditions: IMG microglial cells, LPS 100 ng/ml, 24 hours
TNFα = TNFα secretion in IMG microglial cells after LPS (ELISA); format: cell-based; conditions: FIG. 6A/7, up to 50 μg/mL, LPS 100 ng/ml 24 hours; versus SP163M, SA7
Description: In the NFκB reporter cells, the NFκB inducible Secreted Embryonic Alkaline Phosphatase (SEAP) was measured in the supernatant. TNFα secretion in the supernatant was measured via ELISA.
as §1

CCCC[C@@H]1NC(=O)[C@H](CC(C)C)NC(=O)[C@H](Cc2ccccc2)NC(=O)[C@H](C(C)C)NC(=O)[C@H](Cc2ccccc2)NC(=O)[C@@H]2CCCN2C(=O)[C@@H](NC(=O)[C@H](CCCNC(=N)N)NC(=O)[C@H](CCCNC(=N)N)NC(=O)[C@H](CCCNC(=N)N)NC(C)=O)CSSC[C@@H](C(=O)O)NC1=O [SA7] (Ac-RRRCPFVFL[Nle]C-OH; disulfide 4-11)
IC50 (TMPRSS2): 57.2 nM

Ac- RRRKFT[Nal]]LD (cyclic) [Peptide A3-7]
EC50 NFκB (NFκB; NFκB reporter cells, LPS 5 ng/ml): 22.41 µg/mL
EC50 IL-6 (IL-6): 3.651 µg/mL

HN-RRRFVFLAD (cyclic) (not fully specified; cyclised or stapled) [Peptide A2-3]
activity in reducing NFκB activation (NFκB; FIG. 6B/7, up to 50 μg/mL, LPS 5 ng/ml 24 hours, versus SP163M, SA7): superior activities
activity in reducing TNFα (TNFα): superior activities in reducing TNFα
